In article PMC4831007, “Discovery of a specific inhibitor of human GLUT5 by virtual screening and in vitro transport evaluation” (Scientific Reports, 2016):
Like-named read-outs stand apart in the source and are kept apart here.

Legend:
[1] = target: T1, GLUT1 (Homo sapiens, UniProt P11166); assay: […]-glucose entrance counter-flow in proteoliposomes; assay type: biochemical; conditions: 10 μM 14C-glucose outside, 200 mM glucose inside; pH 7.5; 1 min; labelled compound
T1 construct: gene SLC2A1; full length, N-terminal His6 tag, Sf21 insect cells, purified in DDM, reconstituted in proteoliposomes
T1 sequence (P11166 1-492): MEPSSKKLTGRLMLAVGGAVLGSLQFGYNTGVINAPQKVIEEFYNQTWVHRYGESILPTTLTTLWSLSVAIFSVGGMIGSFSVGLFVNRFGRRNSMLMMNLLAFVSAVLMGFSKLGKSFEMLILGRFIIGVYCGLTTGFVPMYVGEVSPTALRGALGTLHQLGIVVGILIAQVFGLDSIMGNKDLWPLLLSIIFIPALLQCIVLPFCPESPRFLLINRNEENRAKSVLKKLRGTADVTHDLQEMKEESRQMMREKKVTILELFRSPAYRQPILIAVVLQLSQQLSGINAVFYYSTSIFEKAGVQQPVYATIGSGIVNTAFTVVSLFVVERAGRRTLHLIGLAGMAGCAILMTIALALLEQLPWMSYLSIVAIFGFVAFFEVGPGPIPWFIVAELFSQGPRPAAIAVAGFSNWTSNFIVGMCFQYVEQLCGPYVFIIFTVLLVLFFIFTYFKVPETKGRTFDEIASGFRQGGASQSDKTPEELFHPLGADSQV

[2] = target: T2, GLUT3 (Homo sapiens, UniProt P11169); assay: as above; assay type: biochemical; conditions: 10 μM 14C-glucose outside, 200 mM glucose inside; pH 7.5; 1 min; labelled compound
T2 construct: gene SLC2A3; full length, N-terminal His6 tag, Sf21 insect cells, purified in DDM, reconstituted in proteoliposomes
T2 sequence (P11169 1-496): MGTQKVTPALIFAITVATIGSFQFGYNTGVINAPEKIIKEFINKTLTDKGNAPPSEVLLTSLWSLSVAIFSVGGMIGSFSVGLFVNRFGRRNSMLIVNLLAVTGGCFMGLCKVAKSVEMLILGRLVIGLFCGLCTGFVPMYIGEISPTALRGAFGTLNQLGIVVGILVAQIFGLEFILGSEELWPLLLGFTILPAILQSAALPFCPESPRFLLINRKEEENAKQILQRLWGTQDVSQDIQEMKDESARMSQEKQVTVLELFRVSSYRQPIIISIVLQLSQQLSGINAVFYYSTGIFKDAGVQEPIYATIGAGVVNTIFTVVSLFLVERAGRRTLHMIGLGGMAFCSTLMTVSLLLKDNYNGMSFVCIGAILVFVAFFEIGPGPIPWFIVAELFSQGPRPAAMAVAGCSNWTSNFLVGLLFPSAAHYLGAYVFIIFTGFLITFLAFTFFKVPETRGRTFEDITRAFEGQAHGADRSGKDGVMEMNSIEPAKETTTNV

[3] = target: T3, GLUT4 (Homo sapiens, UniProt P14672); assay: as above; assay type: biochemical; conditions: 10 μM 14C-glucose outside, 200 mM glucose inside; pH 7.5; 1 min; labelled compound
T3 construct: gene SLC2A4; full length, N-terminal His6 tag, Sf21 insect cells, purified in DDM, reconstituted in proteoliposomes
T3 sequence (P14672 1-509): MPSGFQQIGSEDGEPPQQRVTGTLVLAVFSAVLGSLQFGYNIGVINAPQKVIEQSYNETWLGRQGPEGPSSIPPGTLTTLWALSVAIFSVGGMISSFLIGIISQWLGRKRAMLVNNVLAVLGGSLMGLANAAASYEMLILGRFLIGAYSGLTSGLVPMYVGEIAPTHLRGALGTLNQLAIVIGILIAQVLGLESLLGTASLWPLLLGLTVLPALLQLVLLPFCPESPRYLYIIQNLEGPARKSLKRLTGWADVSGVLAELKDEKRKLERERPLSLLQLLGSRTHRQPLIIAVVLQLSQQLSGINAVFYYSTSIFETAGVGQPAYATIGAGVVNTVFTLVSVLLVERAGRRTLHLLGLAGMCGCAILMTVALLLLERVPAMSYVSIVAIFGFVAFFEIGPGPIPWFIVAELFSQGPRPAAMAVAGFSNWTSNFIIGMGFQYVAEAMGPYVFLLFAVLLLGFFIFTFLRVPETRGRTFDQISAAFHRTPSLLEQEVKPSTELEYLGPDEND

[4] = target: T4, GLUT2 (Homo sapiens, UniProt P11168); assay: as above; assay type: biochemical; conditions: 10 μM 14C-glucose outside, 200 mM glucose inside; pH 7.5; 1 min; labelled compound
T4 construct: gene SLC2A2; full length, N-terminal His6 tag, Sf21 insect cells, purified in DDM, reconstituted in proteoliposomes
T4 sequence (P11168 1-524): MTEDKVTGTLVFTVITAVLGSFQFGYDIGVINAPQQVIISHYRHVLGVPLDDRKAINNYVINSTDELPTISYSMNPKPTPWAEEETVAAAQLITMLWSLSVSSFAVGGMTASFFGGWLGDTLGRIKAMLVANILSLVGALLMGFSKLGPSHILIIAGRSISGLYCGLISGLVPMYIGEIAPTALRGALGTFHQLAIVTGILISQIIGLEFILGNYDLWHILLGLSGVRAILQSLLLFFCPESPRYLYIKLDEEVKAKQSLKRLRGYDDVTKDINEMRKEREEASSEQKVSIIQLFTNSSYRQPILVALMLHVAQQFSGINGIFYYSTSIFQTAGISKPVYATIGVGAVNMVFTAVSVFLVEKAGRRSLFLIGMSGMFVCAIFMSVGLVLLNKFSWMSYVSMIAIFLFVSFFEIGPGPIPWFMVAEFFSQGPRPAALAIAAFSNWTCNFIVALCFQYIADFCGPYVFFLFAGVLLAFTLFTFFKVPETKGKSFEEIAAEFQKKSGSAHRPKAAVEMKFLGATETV

[5] = target: T4, GLUT2; assay: […]-fructose entrance counter-flow in proteoliposomes; assay type: biochemical; conditions: 10 μM 14C-fructose outside, 200 mM fructose inside; pH 7.5; 1 min; labelled compound
[6] = target: T1, GLUT1; assay: […]-glucose entrance counter-flow in proteoliposomes; assay type: biochemical
[7] = target: T5, native human GLUT5 (Homo sapiens, UniProt P22732); assay: […]-fructose uptake in MCF7 cells, Dixon plot; assay type: cell-based; conditions: competitive with fructose; 50 μM cytochalasin B present to block GLUT2; 3-20 mM fructose; 2 min; 22 °C
T5 construct: gene SLC2A5; native full-length transporter in MCF7 breast cancer cells
T5 sequence (P22732 1-501): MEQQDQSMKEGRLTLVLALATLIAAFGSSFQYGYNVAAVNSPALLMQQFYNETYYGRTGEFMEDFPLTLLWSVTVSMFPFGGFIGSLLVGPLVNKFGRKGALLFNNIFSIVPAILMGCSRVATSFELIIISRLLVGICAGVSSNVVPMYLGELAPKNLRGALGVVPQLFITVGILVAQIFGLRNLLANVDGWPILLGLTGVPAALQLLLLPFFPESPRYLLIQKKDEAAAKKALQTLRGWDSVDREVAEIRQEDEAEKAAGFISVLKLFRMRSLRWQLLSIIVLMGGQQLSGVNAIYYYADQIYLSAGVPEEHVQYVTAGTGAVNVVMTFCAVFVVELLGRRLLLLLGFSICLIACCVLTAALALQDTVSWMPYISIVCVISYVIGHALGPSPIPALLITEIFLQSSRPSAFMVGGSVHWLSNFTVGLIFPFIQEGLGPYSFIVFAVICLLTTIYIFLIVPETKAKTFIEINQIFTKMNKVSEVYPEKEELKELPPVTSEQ

[8] = target: T6, GlcPSe (Staphylococcus epidermidis, UniProt A0A0H2VG78, F348H); assay: biochemical; conditions: read-out: % inhibition at 2 mM
T6 construct: gene glcP
T6 sequence (A0A0H2VG78 whole entry F348H): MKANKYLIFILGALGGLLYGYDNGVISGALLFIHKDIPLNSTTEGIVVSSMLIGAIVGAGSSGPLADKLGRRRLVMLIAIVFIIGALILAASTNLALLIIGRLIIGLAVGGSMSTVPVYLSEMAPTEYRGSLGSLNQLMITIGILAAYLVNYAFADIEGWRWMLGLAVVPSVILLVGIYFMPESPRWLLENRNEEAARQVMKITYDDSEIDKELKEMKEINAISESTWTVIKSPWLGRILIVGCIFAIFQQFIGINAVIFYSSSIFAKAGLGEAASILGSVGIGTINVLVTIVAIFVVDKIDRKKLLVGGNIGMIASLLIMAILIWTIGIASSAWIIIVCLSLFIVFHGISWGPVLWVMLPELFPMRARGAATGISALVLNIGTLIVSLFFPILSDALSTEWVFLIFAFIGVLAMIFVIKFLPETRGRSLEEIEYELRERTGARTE

In the case of `OC[C@H]1OC(O)[C@H](O)[C@@H](O)[C@@H]1O` (stereo partly drawn) [glucose], the “14C-glucose entrance counter-flow in proteoliposomes” value (shortened to “14C-glucose entrance counter-flow”) [1] is reported as “Glucose transport of GLUT1, GLUT2, GLUT3 and GLUT4”, the “14C-glucose entrance counter-flow” value [2] is reported as “Glucose transport of GLUT1, GLUT2, GLUT3 and GLUT4” and the “14C-glucose entrance counter-flow” value [3] is reported as “Glucose transport of GLUT1, GLUT2, GLUT3 and GLUT4”. For the same molecule, the “14C-glucose entrance counter-flow” value [4] was “Glucose transport of GLUT1, GLUT2, GLUT3 and GLUT4”.

With `OCC1(O)OC[C@@H](O)[C@@H](O)[C@@H]1O` (stereo partly drawn) [fructose] the “14C-fructose entrance counter-flow in proteoliposomes” value [5] was “fructose transport of GLUT2 were assayed by the entrance counter-flow method in proteoliposomes”.

In the case of `C=C1[C@@H](C)[C@H]2[C@H](Cc3ccccc3)NC(=O)[C@]23OC(=O)/C=C/[C@H](O)CCC[C@@H](C)C/C=C/[C@H]3[C@@H]1O` [cytochalasin B], the “% inhibition at 2 mM” value ([6]; 10 μM 14C-glucose outside, 200 mM glucose inside, pH 7.5, 1 min) is reported as “Effect of common GLUT1 inhibitors on the relative transport activity of GLUT5, GLUT1 and GlcPSe”.

`O=C(CCc1ccc(O)cc1)c1c(O)cc(O)cc1O` [phloretin] was tested, and the “% inhibition at 2 mM” value [6] was “Effect of common GLUT1 inhibitors on the relative transport activity of GLUT5, GLUT1 and GlcPSe”.

Molecule `CS(=O)(=O)c1ccc(Nc2ccc3c(c2)OCO3)c([N+](=O)[O-])c1` [MSNBA, N-[4-(methylsulfonyl)-2-nitrophenyl]-1,3-benzodioxol-5-amine] has a Ki [7] of 3.2 ± 0.4 µM and an inhibition at 2000 µM [8] of 75%.
